Experimental data: PubChem BioAssay AID179 (DTP/NCI, 2004)
Calls of active or inactive are those of the source.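 How the source made its calls: active means compounds giving half or more protection of infected cells from virus-caused growth loss, again on retest; inactive means the rest.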

Tested on: CEM cells HIV-1 protection, formazan growth assay
Assay: NCI AIDS Antiviral Assay
Settings: for IC50: measured here: growth of uninfected CEM cells
Outline: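 Human CEM cells, uninfected and HIV-1-infected, received five drug concentrations, and growth was read by soluble formazan assay. Compounds giving at least 50% protection were retested; reproducible 100% protection defined confirmed active.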

SMILES | EC50 | IC50 | outcome
CC(C)[C@@H]1CC[C@@H](C)C[C@H]1OC(=O)c1c2n(c3ccccc13)C[C@H]1OC(C)(C)O[C@@H]21 | > 100 µM | 77.6 µM | 
Cc1nc2c(=O)n3c4c(cccc4c2o1)CCC3 | > 200 µM | 107 µM | 
CCOC(=O)c1ccc(-c2cccs2)n1C | > 200 µM | 97.7 µM | 
CCOc1ccc(N=NC2C(=O)N(C(=O)CC(=O)Nc3ccc(Cl)cc3)N=C2C)cc1 (configuration not stated) | > 200 µM | > 200 µM | 
C[Si](C)(C)CCOCN(C(=O)C1=CCC2(CC1)OCCO2)c1ccccc1I | > 200 µM | 12.9 µM | 
NS(=O)(=O)c1c(O)c2ccccc2oc1=O |  |  | inactive
CCOP(=O)(OCC)/C(C#N)=C/c1ccc(C)o1 | > 933 µM | 129 µM | 
COc1ccc(CCN2COc3ccc4ccc(=O)oc4c3C2)cc1OC | > 200 µM | 67.6 µM | 
CCOC(=O)C1C2CCC(O2)C1C(=O)O (configuration not stated) | > 200 µM | 21.4 µM | 
CN(C)CC1CCCc2ccccc2C1=O (configuration not stated) |  |  | inactive
CC1(C)CC(=O)C2C(C1)Nc1ccccc1NC2c1cccc([N+](=O)[O-])c1 (configuration not stated) | > 200 µM | 93.3 µM | 
CC(=O)OC1SC(OC(C)=O)C2OC(=O)OC12 (configuration not stated) | > 871 µM | 155 µM | 
CCN(CC)CCC1CCCCN1CC(=O)N1c2ccccc2NC(=O)c2ccccc21 (configuration not stated) | > 200 µM | > 200 µM | 
CNS(=O)(=O)NNS(=O)(=O)c1ccc(F)cc1 | > 631 µM | 214 µM | 
COC(=O)C1=C(N)C2=C(N)Oc3ccccc3C2CC1=C(C#N)C#N (configuration not stated) | > 200 µM | 47.9 µM | 
COC1OC(COC(=O)c2ccccc2)C(OC(=O)c2ccccc2)C1NC(C)=O (configuration not stated) | > 200 µM | > 200 µM | 
COc1ccc(/C=C/C(=O)c2sc(-c3cccnc3)nc2C)cc1 | > 21.4 µM | > 21.4 µM | 
CC(=O)Nc1nc2c(=O)c3ccccc3sc2s1 |  |  | inactive
Cc1ccccc1NC(=O)C(=O)CC(=O)c1c(C)n([O-])c2ccccc2[n+]1=O | > 3.8 µM | > 3.8 µM | 
COP1(=O)OC(C)=C(C)c2cccn21 (configuration not stated) | > 60.3 µM | > 60.3 µM | 
Nc1ncnc2c1ncn2C1OC2(CCSC2)C(O)C1O (configuration not stated) | > 200 µM | 155 µM | 
Cc1oc2c(C)c3oc(=O)cc(C)c3cc2c1CO | > 200 µM | 30.2 µM | 

SMILES | EC50 | IC50 | outcome
CCOC(=O)/C=C/c1ccc([N+](=O)[O-])cc1 | > 32.4 µM | > 32.4 µM | 
COC12C(COC(N)=O)C3=C(C(=O)C(C)=C(N)C3=O)N1CC1C2N1C (configuration not stated) | > 724 µM | 0.417 µM | 
NC(=O)c1ncn(CC2(COC(=O)c3ccccc3)CCC2)n1 | > 200 µM | > 200 µM | 
O=P1(Oc2ccccc2)C(c2ccccc2)C(c2ccccc2)=NN1c1ccccc1 (configuration not stated) | > 12.3 µM | > 12.3 µM | 
Oc1[nH]c2ccccc2c1N=Nc1nc(-c2ccc(Br)cc2)cs1 | > 200 µM | 120 µM | 
COc1ccc(-c2[nH]c3ccccc3c2CCNS(=O)(=O)c2ccc(C)cc2)cc1 |  |  | inactive
[B-]1n2ccc[n+]2[B-]n2ccc[n+]21 | > 200 µM | > 200 µM | 
Nc1ncnc2snnc12 | > 200 µM | > 200 µM | 
Cc1nn(C(=O)CC(=O)Nc2ccccc2Cl)c(C)c1N=Nc1ccccc1F |  |  | inactive
c1ccc2cc(C3NCCc4[nH]cnc43)ccc2c1 (configuration not stated) | > 28.8 µM | > 28.8 µM | 
NC(=O)C(=O)C1CCC2=C(Sc3ccccc3N2)C1=O (configuration not stated) | > 46.8 µM | > 46.8 µM | 
N#CC12C(=O)N3C(=NC(c4ccccc4)NC3c3ccccc3)C1(C#N)C(c1ccccc1)NC1=C2CCCC1 (configuration not stated) | > 200 µM | > 200 µM | 
COc1ccc(Cn2nc(OCc3ccccc3)c3cc([N+](=O)[O-])ccc32)cc1 | > 200 µM | 25.1 µM | 
O=P(O)(OCCc1ccccc1)Oc1ccccc1O | > 200 µM | > 200 µM | 
Cc1cn(CC2=NCC(C)(C)CN2)c(=O)[nH]c1=O | > 200 µM | > 200 µM | 
CC(=O)O[C@@H]1CN(S(=O)(=O)c2ccc(C)cc2)C[C@@H]1C1CCCCC1 | > 200 µM | 35.5 µM | 
CSC1=NS(=O)(=O)c2cc(C(=O)NN(C)C(=O)c3cc4c(cc3Cl)SC(SC)=NS4(=O)=O)c(Cl)cc2S1 | > 200 µM | 91.2 µM | 
O=[N+]([O-])c1ccc(Sc2c3ccccc3nc3cc(Cl)ccc23)cc1 | > 3.98 µM | > 3.98 µM | 
CC1=C2C3CCCC(C3=O)[C@H](C)C2CC1=O (some centres not stated) |  |  | inactive
Cc1n(CC(C)C)c2c([n+]1CC(=O)c1ccc([N+](=O)[O-])cc1)C(=O)c1ccccc1C2=O | > 4.9 µM | 0.0288 µM | 
Cc1ccc(-c2ccc(Nc3c4ccccc4nc4ccccc34)cc2)cn1 | > 200 µM | 2.69 µM | 
O=[S@](c1ccccc1)[C@@H]1CC2C3CC4C2C4C31 (some centres not stated) | > 537 µM | 324 µM | 

SMILES | EC50 | IC50 | outcome
CCCCS(=O)CCC(N)C(=O)O (configuration not stated) | > 100 µM | > 100 µM | 
O=C1C2Nc3ccccc3SC2C(=O)N1c1cccc([N+](=O)[O-])c1 (configuration not stated) | > 55 µM | > 55 µM | 
COc1ccc(OC)c(-n2nnc3ccccc3c2=O)c1 | > 302 µM | 174 µM | 
C/C(=C\CCC1=CC(=O)OC1)CC[C@@H]1[C@H]2C(=O)CC(C)[C@@]3(C)CC[C@]1(C)[C@@]23C (some centres not stated) | > 200 µM | 34.7 µM | 
Cn1cc(NC(=O)c2cc(NC(=O)c3cc(NC(=O)/C=C/C(=O)Nc4cn(C)c(C(=O)Nc5cn(C)c(C(=O)Nc6cn(C)c(C(=O)NCCC(=N)N)n6)n5)n4)cn3C)cn2C)cc1C(=O)NCCC(=N)N | > 7.76 µM | 1.45 µM | 
CCOC(=O)/C=C1/C(CCCOCc2ccccc2)C2CCCC23CC2(CCN13)OCCO2 (configuration not stated) |  |  | inactive
CC(C)(C)C1=CC(=N/N=c2\scc(-c3ccccc3)n2Cc2ccccc2)C=C(C(C)(C)C)C1=O | > 5.62 µM | > 5.62 µM | 
CC1CCC2[C@@H](C)COC3O[C@]4(C)CCC1C32OO4 (some centres not stated) | > 339 µM | 302 µM | 
COc1ccc(C2SC(N)=Nc3c2c(C)nn3C(=O)c2ccccc2O)cc1OC (configuration not stated) | > 20 µM | 0.617 µM | 
CCCCCC(=O)Nc1n[nH]nc1C#N | > 200 µM | > 200 µM | 
O=C1C(Cl)C(c2ccc(O)cc2)N1n1cnc2ccccc2c1=O (configuration not stated) | > 15.1 µM | > 15.1 µM | 
O=[N+]([O-])c1cccc([N+](=O)[O-])c1S(=O)(=O)c1ccccc1 | > 61.7 µM | 6.31 µM | 
CCN=C(CC(=O)C12CC3CC(CC(C3)C1)C2)N(CC)CC |  |  | inactive
COc1ccc2c(c1)[n+](=O)c(C(=O)C/C(=N/OCCCc1ccccc1)C(=O)NC13CC4CC(CC(C4)C1)C3)c(C)n2[O-] | > 39.8 µM | > 39.8 µM | 
O=C1Cc2c(-c3ccccc3)cc(-c3cccc(Cl)c3)nc2-c2ccccc2N1 |  |  | inactive
NCCNCCNCc1c2ccccc2c(CNCCNCCN)c2ccccc12 | 5.89 µM | 39.8 µM | 
COC1CCC(OS(C)(=O)=O)C(C)O1 (configuration not stated) | > 200 µM | 110 µM | 
CC1(C)COC1(c1ccccc1)c1cccnc1 (configuration not stated) | > 200 µM | 148 µM | 
COC(=O)C(Cc1c[nH]c2ccccc12)NC(=O)C(Cc1cnc[nH]1)NC(=O)C1CCC(=O)N1C(=O)OCc1ccccc1 (configuration not stated) | > 200 µM | > 200 µM | 
CCc1c2cc(OC)c(OC)cc2cc2c3cc(OC)c(OC)cc3cc[n+]12 (tested in a mixture with another compound) | > 234 µM | 33.9 µM | 
O=c1cc(N=P(c2ccccc2)(c2ccccc2)c2ccccc2)n(-c2ccccc2)c(=O)n1-c1ccccc1 |  |  | inactive
CCOC(OCC)C(CC)[Se]c1ccccc1 (configuration not stated) | > 87.1 µM | > 87.1 µM | 

SMILES | EC50 | IC50 | outcome
[N-]=[N+]=NC1=C(c2ccccc2)C(=O)c2cccc3cccc1c23 | > 200 µM | 7.76 µM | 
O=C(C[n+]1ccccc1)NNC(=O)/C(=C/c1ccc2c(c1)OCO2)NC(=O)c1ccccc1 | > 7.76 µM | > 7.76 µM | 
[N-]=[N+]=NC1(c2ccccc2)C(=O)C(Cl)=C(c2ccccc2)N(c2ccccc2)C1=O (configuration not stated) | > 200 µM | 126 µM | 
C/C(CN1C(=O)c2ccccc2C1=O)=N\NS(=O)(=O)c1ccc2ccccc2c1 | > 447 µM | > 447 µM | 
O=c1c2cc(Br)ccc2nc(-c2ccccc2)n1NCC1(O)OCC(O)C(O)C1O (configuration not stated) |  |  | inactive
COc1ccc(/C=C2/SC(c3ccc(Cl)cc3)N(NC(=O)CCCCCCCCC(=O)NN3C(=O)/C(=C\c4ccc(OC)c(OC)c4)SC3c3ccc(Cl)cc3)C2=O)cc1OC (configuration not stated) | 67.6 µM | 182 µM | 
CC1OC(=O)C2=C1C(=O)CC(C)(C)O2 (configuration not stated) | > 182 µM | 170 µM | 
CCC/C(Cl)=N/OC(NC(=O)OCC)(C(F)(F)F)C(F)(F)F | > 200 µM | 10 µM | 
[Ni+2].[O-]/C(=N\N=C\c1ccccn1)c1ccccc1O.[O-]/C(=N\N=C\c1ccccn1)c1ccccc1O | > 200 µM | 6.17 µM | 
CC(C)C(=O)CC(Sc1ccc(N)cc1)c1ccccc1 (configuration not stated) | > 200 µM | 87.1 µM | 
C=C(C)C1CC[C@]2(C(=O)O)CCC3(C)[C@H](CCC4[C@@]5(C)CC[C@H](OC6OC(CO)C(O)C6OC6OC(C)C(O)C(O)C6O)[C@@](C)(CO)C5CC[C@]43C)C12 (some centres not stated) |  |  | inactive
CN/N=C(\C)C(CN1CCCCC1)C(C1=C(O)c2ccccc2OC1)c1ccccc1 (configuration not stated) | > 29.5 µM | > 29.5 µM | 
NC1CN(C(COCc2ccccc2)c2ccc(OCc3ccccc3)cc2)C1=O (configuration not stated) |  |  | inactive
COC(=O)/C(C#N)=C\N1CCNC1=S | > 200 µM | > 200 µM | 
CC(=O)NNC(=S)/N=C/C(C(=O)Nc1ccc([N+](=O)[O-])cc1)=C(\C)O | 117 µM | 170 µM | 
COc1cc2c(c(C)c1O)[C@H]1COc3ccccc3[C@H]1O2 | > 87.1 µM | 15.8 µM | 
OC1(c2ccccc2)C2CCN(CC2)C1CN1CCOCC1 (configuration not stated) | > 200 µM | > 200 µM | 
CCOC(=O)c1ccc(CS(=O)(=O)c2ccc(OC)cc2)c([N+](=O)[O-])c1 | > 95.5 µM | > 95.5 µM | 
CC(=O)NC1C(OCc2ccccc2)OC(CO)C(O)C1OC(C)C(=O)N[C@@H](C)C(=O)N[C@H](CCC(=O)OCCNc1c2ccccc2nc2cccc([N+](=O)[O-])c12)C(N)=O (some centres not stated) | > 0.02 µM | 0.000339 µM | 
